{"source": "paper PMC5556071", "about": "“ATR inhibition facilitates targeting of leukemia dependence on convergent nucleotide biosynthetic pathways” (Nature Communications, 2017)", "key": {"CEM T-ALL cells": {"tested_on": "CEM T-ALL cells", "assay": "ssDNA (F7-26) and pH2A.X flow cytometry", "assay_type": "cell-based, human", "procedure": "Treated CEM T-ALL cells were fixed with ice-cold methanol:PBS (6:1 v/v). Staining with F7-26 ssDNA monoclonal antibody (mouse) was performed according to manufacturer’s instructions (EMD Millipore, #MAB3299) followed by secondary antibody IgM-PE. Subsequently, cells were stained with the phospho-Histone H2A.X (pS139 H2A.X) specific antibody conjugated to FITC (EMD Millipore, #05-636) and DAPI, and then analyzed by flow cytometry (a detailed description is available in the Supplementary Information).\n(525→383). The peak areas for each drug (precursor→fragment ion transitions) at predetermined retention times were recorded using the software supplied by the instrument manufacturer (Agilent MassHunter).\nCell cycle histograms. Cells were plated at a density of 0.5 x 10^6 cells/mL in respective media or drug treated media. […]\nCell cycle kinetics and cell cycle progression by intracellular detection of DNA-incorporated 5-ethynyl-2-deoxyuridine (EdU). […] The total DNA content was assessed by staining the samples with FxCycle-Violet (Invitrogen, #F10347) at 1 µg/mL final concentration in PBS containing 2% FBS. […] Total DNA content was assessed by staining with FxCycle-Violet (Invitrogen) at 1 µg/mL final concentration in PBS containing 2% FBS. pH2A.X staining. […]\nMeasurement of ssDNA levels using the F7-26 monoclonal antibody. […] Cells were washed with PBS and stained with 100 µL of fluorescence-conjugated […]"}, "RRM2 pT33": {"tested_on": "RRM2 pT33", "assay": "Phosphoproteomic nLC-MS/MS analysis of RRM2 phosphorylation", "assay_type": "cell-based, human", "parameters": "key to RNR pT33: ↓: partial decrease/inhibition; ↓↓↓: nearly complete inhibition; ↑: increase; ⟷: no change", "procedure": "against both the Uniprot human FASTA database and a decoy database of the Uniprot human database which read from C-terminus to N-terminus; Percolator was used to filter the data at 1% FDR at both the peptide and […]\nPhosphoproteomic analyses. CCRF-CEM cells were prepared same as the asynchronous CEM cells total protein digests above, except that a total of 7.5 mg total protein from 1 x 10^8 cells was collected per treatment condition for phosphoproteomic analysis. tC18 Sep-Pak cartridges (Waters) were used for peptide desalting and Pierce Quantitative Colorimetric Peptide Assay was performed prior to phosphopeptide enrichment.\nHydrophilic interaction chromatography (HILIC) and immobilized metal affinity chromatography (IMAC) were performed same as previously described4. Data dependent nLC-MS/MS was performed on Thermo QExactive Plus same as above. Raw data was searched against Uniprot human database using MaxQuant 1.5.3.30 with the following search parameters: trypsin cleavage allowing up to 2 missed cleavages, fixed modification of carbamidomethyl to cysteines, variable modifications of acetylation to protein N-terminus, methionine oxidation, and phosphorylation to serine, threonine, and tyrosine, 10 ppm and 20 mmu mass errors for full MS and MS/MS, respectively, score of 40 or greater for modified peptides, and 1% false-discovery rate on peptide and protein identifications. Identified phosphopeptides were manually quantified by area-based extracted ion chromatograms of the monoisotopic peak. […]\nPlasma samples were processed the same way as the calibration standard samples. 20 μL samples were injected onto a reverse phase column, (Thermo Scientific Hypersil GOLD column 3.0 µm; 2.1 x 100 mm) equilibrated in water/formic acid, 100/0.1, and eluted (200 μL/min) with an increasing concentration of solvent […]\nThe effluent from the column was directed to the Agilent Jet Stream ion source connected to the triple quadrupole mass spectrometer (Agilent 6460) operating in the multiple reaction monitoring (MRM) mode using previously optimized settings. The following drug precursor→fragment ion transitions were used: 3-AP"}, "ATR": {"tested_on": "ATR", "parameters": "method as in earlier work", "conditions": "ref #35, Fokas et al., 2014; cited from earlier work"}, "[1]": {"conditions": "asynchronous CEM, VE-822 1 µM, 12 h"}}, "data": [{"smiles": "NC(=S)N/N=C/c1ncccc1N", "note": "[3-AP]", "values": [{"measurement": "increase of the percentage of ssDNA+ cells", "setting": "CEM T-ALL cells; 0.5 h after treatment", "result": "more than two-fold"}, {"measurement": "increase of the percentage of ssDNA+ cells", "setting": "CEM T-ALL cells; 4 h time point", "result": "greater than three-fold"}]}, {"smiles": "CNCc1ccc(-c2cc(-c3nc(-c4ccc(S(=O)(=O)C(C)C)cc4)cnc3N)on2)cc1", "note": "[VE-822]", "values": [{"measurement": "decrease in the phosphorylation of RRM2 on threonine 33 (pT33)", "setting": "RRM2 pT33; [1]", "result": "~ 50%"}, {"measurement": "mean fold change of RRM2 pT33 normalized to total RRM2", "setting": "RRM2 pT33; [1]", "result": "0.43 ± 0.1", "unit": "fold"}, {"measurement": "observed fold decrease for pT33 (phosphoproteomic nLC-MS/MS)", "setting": "RRM2 pT33; [1]", "result": 0.34, "unit": "fold"}, {"measurement": "RNR pT33", "setting": "RRM2 pT33; summary Fig. 2g, CEM cells", "result": "↓"}, {"measurement": "cellular selectivity for ATR compared to other members of the PIKK family (including ATM and DNA-PK)", "setting": "ATR", "result": "> 100", "unit": "fold"}]}]}
